Assay results as given in PMC12459020, “Chemical Probes that Target a Dissociative LuxR-Type Quorum Sensing Receptor in Gram-Negative Bacteria” (ACS Chemical Biology, 2025).

Columns and labels:
EsaR [1] = target: T1, EsaR (Pantoea stewartii subsp. stewartii, UniProt P54293); assay: cell-based
T1 construct: expressed in transfected cells; host or cells: E. coli JLD271 (K12 ΔsdiA), arabinose-induced pJN105-esaR
In short: (§1)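 E. coli carrying arabinose-induced esaR plus pesaS (activated) or pesaR (repressed) promoter fused to lux or GFP; P. stewartii ESN51 GFP reporters also used.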

EsaR [2] = target: T1, EsaR; assay: cell-based; remark: listed apart in the source
In short: as §1

EsaR [3] = target: T1, EsaR; assay: P. stewartii ESN51 (ΔesaI) GFP reporter with EsaR-activated promoter (pesaS); assay type: cell-based
Excerpt: (§2) EsaR transcriptional activation and repression were examined using E. coli and P. stewartii reporters (strains and plasmids listed in Table S1; see Methods section for assay details). […] We constructed reporters in E. coli based on previously reported EsaR reporters (Table S1). Each strain contained an EsaR expression plasmid (pJN105-esaR) and a reporter plasmid with either an EsaR-activated promoter (pesaS) or an EsaR-repressed promoter (pesaR) upstream of luxABCDE or GFP.
(§3) Gibson assembly was used to create all constructs. Plasmid pJN105-esaR was created by amplifying esaR from pAC-esaR and inserting it into pJN105. pesaSlux was created by inserting pesaS, amplified from pPesaR-AC:gfp, into the pCS-pesaRlux backbone. The pesaR promoter was amplified from pCS-pesaRlux and inserted into the pPesaR-AC:gfp backbone to create pesaR:GFP. P. stewartii reporter strains were created by transforming pesaR:GFP or pPesaR-AC:gfp into ESN51 by conjugation using E. coli S17 λpir as the donor strain. See SI for details of E. coli ExpR2 reporter construction.
(§4) Compound stocks were prepared and plated as described for E. coli reporter assays. […] Cultures were diluted to an OD600 of 0.05, and 198 μL was added to each well of a clear-bottom, black 96-well plate and incubated for 6 h at 28 °C (200 rpm) before reading fluorescence and OD600.

EsaR [4] = target: T1, EsaR; assay: P. stewartii ESN51 (ΔesaI) GFP reporter with EsaR-repressed promoter (pesaR); assay type: cell-based
Excerpt: as §2, §3, §4

P. stewartii ESN51 = assay type: cell-based, Pantoea stewartii; details: OD600; 100 µM–1 mM tested
Excerpt: We were curious whether the EsaR agonists identified in the E. coli reporters were also active in EsaR’s native host organism. In past studies, some E. coli LuxR-type receptor reporters have yielded EC50 values for exogenous ligands that differ by orders of magnitude relative to reporters constructed in native bacteria. Overexpression of LuxR-type receptors in E. coli has been proposed to lead to increased DNA binding and an overestimation of associative receptor sensitivity to agonists, as measured with lower EC50 values. However, because dissociative LuxR-type receptors bind to DNA in the absence of ligand, high receptor expression could instead lead to an underestimate of agonism. To account for any unintended effects of the E. coli genetic background and test compound activity at native levels of EsaR, we created genetic reporters in P. stewartii (see above and Methods section for details).
Supporting Information — Stoutland et al. […]
interesting that constitutive activituy (uninduced) from pesaR promoter is so much 2 4 6 […]
ESN51 pesaR-AC:GFP ESN51 pesaR:GFP
Figure S1. Luminescence inhibition, dynamic range, and growth of reporter strains. […]
(also on this page, place not known: 102 104 106 percent activation (GFP/OD600 - JLD)/3OC6 Normalized luminescence ✱✱✱✱✱✱✱✱ controls GFP/OD600 pesaS OD600 GAF 0.3 0.4 OD600 1mM 300µM)

[5] = Solubility remark on supplementary figure page; assay type: physicochemical; details: stray annotation on SI page 6

T1 sequence (P54293 whole entry): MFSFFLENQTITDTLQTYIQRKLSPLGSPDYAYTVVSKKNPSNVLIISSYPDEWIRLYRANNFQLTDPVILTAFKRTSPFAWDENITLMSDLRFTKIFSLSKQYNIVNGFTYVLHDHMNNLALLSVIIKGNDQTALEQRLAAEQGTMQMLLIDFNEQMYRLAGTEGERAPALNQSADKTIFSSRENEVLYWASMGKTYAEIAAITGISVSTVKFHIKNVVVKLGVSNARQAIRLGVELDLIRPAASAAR

SMILES | EC50 (EsaR [1]) [µM] | EC50 (EsaR [2]) [µM] | EC50 (EsaR [3]) [µM] | EC50 (EsaR [4]) [µM] | growth inhibition in P. stewartii ESN51 reporters (P. stewartii ESN51) | EsaR agonism at 100 μM (bound stated in text) (EsaR [2]; 100 μM, E. coli EsaR reporter) | solubility remark [5]
O=C1OCC[C@@H]1NS(=O)(=O)c1ccc(Br)cc1 [GAF 35] | 23 | 23 | 24 | 27 | Growth inhibition | – | –
O=C(N[C@H]1CCOC1=O)c1ccc(Cl)c(Cl)c1 [GAF 58] | – | – | – | – | – | less than 50% | slighly insoluble
O=C1OCC[C@@H]1NS(=O)(=O)c1ccc(Cl)c(F)c1 [GAF 64, 3-F, 4-Cl BSHL] | – | – | 2.7 | 6.7 | Growth inhibition | – | –
